Experiments:
[1] = target: T1, human vasopressin V1a receptor (Homo sapiens, UniProt P37288); experiment: Human vasopressin V1a receptor binding assay; settings: 1321N1 cell membranes, [3H]vasopressin; read-out: Ki (nM) on hV1a cell line
Outline: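 Radioligand competition on membranes from cells expressing human V1a receptor; incubation 60 minutes at 27° C., non-specific binding with 1.2×10^−6 M unlabeled (Arg^8)-vasopressin, filtration separation. Ki by Cheng-Prusoff using Scatchard-derived KD, from at least two independent experiments.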

[2] = target: T1, human vasopressin V1a receptor; experiment: Functional assay on human vasopressin V1a receptor expressing cell line (intracellular Ca2+ fluorescence); format: cell-based; settings: 1321N1 cells, (Arg8)-vasopressin at EC80; read-out: IC50 (nM) on hV1a cell line
mouse V1a receptor = mouse V1a receptor (Mus musculus, UniProt Q62463); experiment: Functional V1a in vivo test: inhibition of oxytocin-induced scratching behaviour; settings: mice, 10 mg/kg p.o. pretreatment
Chain of mouse V1a receptor (Q62463 whole entry): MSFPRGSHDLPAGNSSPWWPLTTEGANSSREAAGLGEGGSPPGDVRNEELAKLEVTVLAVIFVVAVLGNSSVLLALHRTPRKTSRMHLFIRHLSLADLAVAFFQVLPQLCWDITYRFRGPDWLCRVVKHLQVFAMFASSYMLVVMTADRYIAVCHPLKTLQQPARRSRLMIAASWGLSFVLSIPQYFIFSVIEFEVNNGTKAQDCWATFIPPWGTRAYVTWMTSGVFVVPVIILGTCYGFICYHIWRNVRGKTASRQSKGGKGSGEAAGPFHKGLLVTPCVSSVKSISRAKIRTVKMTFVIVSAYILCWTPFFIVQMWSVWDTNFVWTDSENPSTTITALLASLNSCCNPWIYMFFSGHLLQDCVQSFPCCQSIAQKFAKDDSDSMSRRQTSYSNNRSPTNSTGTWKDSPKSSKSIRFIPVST
Description: Functional V1a In Vivo Test
Male mice (NMRI, ToxiCoop) weighing 18-40 g were used. Animals were kept at least 5 days after delivery, during housing and measurements they were fed and drink ad libitum. The experiments were permitted by the Local Animal Protection Committee and carried out in accordance with the European Animal Protection Directives (EU Directive 2010/63/EU).
Animal behaviour was measured by an automated behavioral analysis system (LABORAS™). The sensors located below platforms detect the mechanical vibration generated by the movement of animal, and transform into an electrical signal (Quinn et al., J Neurosci Methods 2003, 130:83-92). After analyzing signals, the system analyzes the time spent with the following behavioral parameters: locomotion, immobility, climbing, grooming. The grooming algorithm by definition is able to measure the scratching behavioral response. During the experiment, mice were pretreated with the test substance or vehicle, and after the pretreatment period scratching-inducing compound (s.c. 0.3 mg/kg oxytocin) was administered, and then the animals were individually placed into measuring cages. […] To reduce the exploratory activity, the animals were measured after a 1-hour habituation to the cage. The behavioural parameters were compared to the parallel measured parameters of the control animals.
The behavioural inhibitory effect of the substances was calculated with average values of parallel measured vehicle treated groups and presented as the percentage of inhibition: 0% was expressed as average value of scratching behaviour of vehicle pretreated animals (and phys. saline s.c. pretreated with vehicle), while 100% was expressed as average value of scratching of vehicle pretreated animals that received oxytocin subcutaneously. For statistical analysis one-way analysis of variance (ANOVA) with Tukey post hoc test were used.

T1 sequence (P37288 whole entry): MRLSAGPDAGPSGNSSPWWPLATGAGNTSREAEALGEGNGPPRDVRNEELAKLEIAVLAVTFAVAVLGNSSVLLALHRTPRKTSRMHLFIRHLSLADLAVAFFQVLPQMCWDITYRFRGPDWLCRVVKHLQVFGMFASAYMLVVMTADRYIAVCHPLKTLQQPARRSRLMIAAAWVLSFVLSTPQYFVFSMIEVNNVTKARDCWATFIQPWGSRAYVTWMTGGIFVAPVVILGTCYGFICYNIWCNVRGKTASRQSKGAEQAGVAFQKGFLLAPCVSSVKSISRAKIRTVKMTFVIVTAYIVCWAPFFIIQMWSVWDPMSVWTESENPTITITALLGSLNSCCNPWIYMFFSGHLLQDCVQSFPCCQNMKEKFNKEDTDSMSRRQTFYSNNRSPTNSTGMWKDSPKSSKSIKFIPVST

| Compound | Ki [1] [nM] | IC50 [2] [nM] | inhibition (%) of oxytocin-induced scratching behaviour response (mouse V1a receptor) [%] |
| --- | --- | --- | --- |
| CO[C@@H]1Cc2cc(Cl)ccc2-n2c(nnc2[C@H]2CC[C@H](Oc3ccccn3)CC2)C1 (single isomer, unassigned) [Example 104] | 0.2 | 0.6 | 67 |
| NCC(=O)N[C@@H]1Cc2cc(Cl)ccc2-n2c(nnc2[C@H]2CC[C@H](Oc3ccccn3)CC2)C1 [Example 12, N-{(5R)-8-chloro-1-[trans-4-(pyridin-2-yloxy)cyclohexyl]-5,6-dihydro-4H-[1,2,4]triazolo[4,3-a][1]benzazepin-5-yl}glycinamide] | 0.8 | 9 | 34 |
| CN(C)CCOC1Cc2cc(Cl)ccc2-n2c(nnc2[C@H]2CC[C@H](Oc3ccccn3)CC2)C1 (stereo partly drawn) [Example 60, 2-({8-chloro-1-[trans-4-(pyridin-2-yloxy)cyclohexyl]-5,6-dihydro-4H-[1,2,4]triazolo[4,3-a][1]benzazepin-5-yl}oxy)-N,N-dimethylethanamine] | 2 | 45 | 40 |
| FC(F)(F)[C@H]1CC[C@H](c2nnc3n2-c2ccc(Cl)cc2CC2(C3)OCCO2)CC1 [Example 61, 8′-chloro-1′-[trans-4-(trifluoromethyl)cyclohexyl]-4′H,6′H-spiro[1,3-dioxolane-2,5′-[1,2,4]triazolo[4,3-a][1]benzazepine]] | 0.4 | 2.5 | 41 |
| N#Cc1ccc2c(c1)CC1(Cc3nnc([C@H]4CC[C@H](Oc5ccccn5)CC4)n3-2)OCCO1 [Example 66, 1′-[trans-4-(pyridin-2-yloxy)cyclohexyl]-4′H,6′H-spiro[1,3-dioxolane-2,5′-[1,2,4]triazolo[4,3-a][1]benzazepine]-8′-carbonitrile] | 0.8 | 2.2 | 76 |
| Clc1ccc2c(c1)CC1(Cc3nnc([C@H]4CC[C@H](Oc5ccccn5)CC4)n3-2)OCCCO1 [Example 88, 8′-chloro-1′-[trans-4-(pyridin-2-yloxy)cyclohexyl]-4′H,6′H-spiro[1,3-dioxane-2,5′-[1,2,4]triazolo[4,3-a][1]benzazepine]] | 0.3 | 0.9 | 79 |
| FC(F)(F)[C@H]1CC[C@H](c2nnc3n2-c2ccc(Cl)cc2CC2(C3)OCCCO2)CC1 [Example 89, 8′-chloro-1′-[trans-4-(trifluoromethyl)cyclohexyl]-4′H,6′H-spiro[[1,3]dioxane-2,5′-[1,2,4]triazolo[4,3-a][1]benzazepine]] | 0.4 | 1.9 | 50 |
| CCN[C@@H]1Cc2cc(Cl)ccc2-n2c(nnc2[C@H]2CC[C@H](Oc3ccccn3)CC2)C1 [Example 99, (5R)-8-chloro-N-ethyl-1-[trans-4-(pyridin-2-yloxy)cyclohexyl]-5,6-dihydro-4H-[1,2,4]triazolo[4,3-a][1]benzazepin-5-amine] | 0.3 | 2.5 | 60 |
| CN[C@@H]1Cc2cc(Cl)ccc2-n2c(nnc2[C@H]2CC[C@H](Oc3ccccn3)CC2)C1 [Example 100, (5R)-8-chloro-N-methyl-1-[trans-4-(pyridin-2-yloxy)cyclohexyl]-5,6-dihydro-4H-[1,2,4]triazolo[4,3-a][1]benzazepin-5-amine] | 0.2 | 1.5 | 96 |
| O=C(N[C@@H]1Cc2cc(Cl)ccc2-n2c(nnc2[C@H]2CC[C@H](Oc3ccccn3)CC2)C1)C1CC1 [Example 126, N-{(5R)-8-chloro-1-[trans-4-(pyridin-2-yloxy)cyclohexyl]-5,6-dihydro-4H-[1,2,4]triazolo[4,3-a][1]benzazepin-5-yl}cyclopropanecarboxamide] | 0.6 | 1.8 | 43 |
| CO[C@]1(C)CC[C@@H](c2nnc3n2-c2ccc(Cl)cc2CC2(C3)OCCCO2)CC1 [Example 204, 8′-chloro-1′-(trans-4-methoxy-4-methylcyclohexyl)-4′H,6′H-spiro[1,3-dioxane-2,5′-[1,2,4]triazolo[4,3-a][1]benzazepine]] | 0.2 | 2.7 | 65 |
| CO[C@]1(C)CC[C@H](c2nnc3n2-c2ccc(Cl)cc2CC2(C3)OCCCO2)CC1 [Example 205, 8′-chloro-1′-(cis-4-methoxy-4-methylcyclohexyl)-4′,6′H-spiro[1,3-dioxane-2,5′-[1,2,4]triazolo[4,3-a][1]benzazepine]] | 0.2 | 2.7 | 66 |

The remaining compounds from weak to strong by Ki [1], led by results:

| Ki [1] [nM] | IC50 [2] [nM] | inhibition (%) of oxytocin-induced scratching behaviour response (mouse V1a receptor) [%] | Compound |
| --- | --- | --- | --- |
| 4 | 2.6 | 30 | COC1Cc2cc(Cl)ccc2-n2c(nnc2[C@H]2CC[C@H](C(F)(F)F)CC2)C1 (mixture of isomers) [Example 74, 8-chloro-5-methoxy-1-[trans-4-(trifluoromethyl)cyclohexyl]-5,6-dihydro-4H-[1,2,4]triazolo[4,3-a][1]benzazepine] |
| 1 | 6.4 | 75 | CCNC1Cc2cc(Cl)ccc2-n2c(nnc2[C@H]2CC[C@H](Oc3ccccn3)CC2)C1 (stereo partly drawn) [Example 23, 8-chloro-N-ethyl-1-[trans-4-(pyridin-2-yloxy)cyclohexyl]-5,6-dihydro-4H-[1,2,4]triazolo[4,3-a][1]benzazepine-5-amine] |
| 0.6 | 5.4 | 89 | Clc1ccc2c(c1)CC(NC1CCOCC1)Cc1nnc([C@H]3CC[C@H](Oc4ccccn4)CC3)n1-2 (stereo partly drawn) [Example 29, 8-chloro-1-[trans-4-(pyridin-2-yloxy)cyclohexyl]-N-(tetrahydro-2H-pyran-4-yl)-5,6-dihydro-4H-[1,2,4]triazolo[4,3-a][1]benzazepine-5-amine] |
| 0.3 | 1.2 | 92 | O[C@H]1Cc2cc(Cl)ccc2-n2c(nnc2[C@H]2CC[C@H](Oc3ccccn3)CC2)C1 [Example 56, (5S)-8-chloro-1-[trans-4-(pyridin-2-yloxy)cyclohexyl]-5,6-dihydro-4H-[1,2,4]triazolo[4,3-a][1]benzazepin-5-ol] |
| 0.3 | 1.4 | 96 | COC1Cc2cc(Cl)ccc2-n2c(nnc2[C@H]2CC[C@H](Oc3ccccn3)CC2)C1 (mixture of isomers) [Example 58, 8-chloro-5-methoxy-1-[trans-4-(pyridin-2-yloxy)cyclohexyl]-5,6-dihydro-4H-[1,2,4]triazolo[4,3-a][1]benzazepine] |
| 0.2 | 0.7 | 71 | CO[C@H]1Cc2cc(Cl)ccc2-n2c(nnc2[C@H]2CC[C@H](Oc3ccccn3)CC2)C1 (single isomer, unassigned) [Example 103] |
| 0.2 | 0.8 | 49 | Fc1ccc2c(c1)CC1(Cc3nnc([C@H]4CC[C@H](Oc5ccccn5)CC4)n3-2)OCCO1 [Example 96, 8′-fluoro-1′-[trans-4-(pyridin-2-yloxy)cyclohexyl]-4′H,6′H-spiro[1,3-dioxolane-2,5′-[1,2,4]triazolo[4,3-a][1]benzazepine]] |
| 0.2 | 1.3 | 105 | CN(C)[C@@H]1Cc2cc(Cl)ccc2-n2c(nnc2[C@H]2CC[C@H](Oc3ccccn3)CC2)C1 [Example 101, (5R)-8-chloro-N,N-dimethyl-1-[trans-4-(pyridin-2-yloxy)cyclohexyl]-5,6-dihydro-4H-[1,2,4]triazolo[4,3-a][1]benzazepin-5-amine] |
| 0.2 | 0.9 | 41 | CO[C@]1(C)CC[C@@H](c2nnc3n2-c2ccc(Cl)cc2CC2(C3)OCCO2)CC1 [Example 198, 8′-chloro-1′-(trans-4-methoxy-4-methylcyclohexyl)-4′H,6′H-spiro[1,3-dioxolane-2,5′-[1,2,4]triazolo[4,3-a][1]benzazepine]] |
| 0.1 | 0.5 | 108 | Clc1ccc2c(c1)CC1(Cc3nnc(N4CCC(Oc5ccccn5)CC4)n3-2)OCCO1 [Example 157, 8′-chloro-1′-[4-(pyridin-2-yloxy)piperidin-1-yl]-4′H,6′H-spiro[1,3-dioxolane-2,5′-[1,2,4]triazolo[4,3-a][1]benzazepine]] |

From patent US11298363B2, “Triazolobenzazepines as vasopressin V1a receptor antagonists” (RICHTER GEDEON NYRT., priority 2017, dated 2022)
